Experimental data as given in patent US20080039495A1, “Diamine Beta2 Adrenergic Receptor Agonists” (priority 2004, published 2008).
pEC50, pKi: −log10 of the molar value.

How the values were obtained:
[1] = target: T1, human β2 adrenergic receptor (Homo sapiens, UniProt P07550); experiment: Radioligand binding assay (Test A); conditions: for pKi: [3H]dihydroalprenolol displacement, HEK-293 membranes, results expressed as pKi; for Selectivity β2/β1 (binding): ratio Ki(β1)/Ki(β2)
T1 construct: expressed in transfected cells; membrane preparation
T1 sequence (P07550 whole entry): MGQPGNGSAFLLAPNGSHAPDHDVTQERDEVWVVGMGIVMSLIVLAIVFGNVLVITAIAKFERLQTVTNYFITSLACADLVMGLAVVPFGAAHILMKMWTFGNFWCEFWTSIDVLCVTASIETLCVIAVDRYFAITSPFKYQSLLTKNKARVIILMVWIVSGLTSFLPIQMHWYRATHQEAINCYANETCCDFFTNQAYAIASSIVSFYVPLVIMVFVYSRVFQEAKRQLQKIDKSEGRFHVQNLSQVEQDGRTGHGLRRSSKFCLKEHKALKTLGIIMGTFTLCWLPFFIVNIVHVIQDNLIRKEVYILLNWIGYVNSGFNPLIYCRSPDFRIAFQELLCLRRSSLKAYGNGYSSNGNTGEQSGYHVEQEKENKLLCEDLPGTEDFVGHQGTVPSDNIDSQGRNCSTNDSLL
Method: HEK-293 derived cell lines stably expressing cloned human β1 or β2 adrenergic receptors, respectively, were grown to near confluency in DMEM with 10% dialyzed FBS in the presence of 500 μg/mL Geneticin. The cell monolayer was lifted with Versene 1:5,000 (0.2 g/L EDTA in PBS) using a cell scraper. Cells were pelleted by centrifugation at 1,000 rpm, and cell pellets were either stored frozen at −80° C. or membranes were prepared immediately. For preparation, cell pellets were resuspended in lysis buffer (10 mM Tris/HCL pH 7.4 @ 4° C., one tablet of “Complete Protease Inhibitor Cocktail Tablets with 2 mM EDTA” per 50 mL buffer (Roche cat.# 1697498, Roche Molecular Biochemicals, Indianapolis, Ind.)) and homogenized using a tight-fitting Dounce glass homogenizer (20 strokes) on ice. The homogenate was centrifuged at 20,000×g, the pellet was washed once with lysis buffer by resuspension and centrifugation as above. The final pellet was resuspended in membrane buffer (75 mM Tris/HCl pH 7.4, […], 1 mM EDTA @ 25° C.). Protein concentration of the membrane suspension was determined by the method of Bradford (Bradford M M., Analytical Biochemistry, 1976, 72, 248-54). Membranes were stored frozen in aliquots at −80° C.
Binding assays were performed in 96-well microtiter plates in a total assay volume of 100 μL with 5 μg membrane protein for membranes containing the human β2 adrenergic receptor, or 2.5 μg membrane protein for membranes containing the human β1 adrenergic receptor in assay buffer (75 mM Tris/HCl pH 7.4 @ 25° C., 12.5 mM MgCl2, 1 mM EDTA, 0.2% BSA). […] Non-specific binding was determined in the presence of 10 μM unlabeled alprenolol. […] Filter plates were washed three times with filtration buffer (75 mM Tris/HCl pH 7.4 @ 4° C., 12.5 mM MgCl2, 1 mM EDTA) to remove unbound radioactivity. Plates were dried, 50 μL Microscint-20 liquid scintillation fluid (Packard BioScience Co., Meriden, Conn.) was added and plates were counted in a Packard Topcount liquid scintillation counter (Packard BioScience Co., Meriden, Conn.). Binding data were analyzed by nonlinear regression analysis with the GraphPad Prism Software package (GraphPad Software, Inc., San Diego, Calif.) using the 3-parameter model for one-site competition. The curve minimum was fixed to the value for nonspecific binding, as determined in the presence of 10 μM alprenolol. Ki values for compounds were calculated from observed IC50 values and the Kd value of the radioligand using the Cheng-Prusoff equation (Cheng Y, and Prusoff W H., Biochemical Pharmacology, 1973, 22, 23, 3099-108). The receptor subtype selectivity was calculated as the ratio of Ki(β1)/Ki(β2).
Binding results are expressed as the negative decadic logarithm of the Ki values, pKi. […]

[2] = target: T2, human β2-adrenoceptor (Homo sapiens, UniProt P07550); experiment: Whole-cell cAMP Flashplate assay, recombinant cell line (Test B); format: cell-based; conditions: for pEC50: HEK-293 cells expressing cloned human β2-adrenoceptor, cAMP; for Selectivity β2/β1 (functional): ratio EC50(β1)/EC50(β2); for Selectivity β2/β3 (functional): ratio EC50(β3)/EC50(β2)
T2 construct: expressed in transfected cells
T2 sequence (P07550 whole entry): as above
Method: A HEK-293 cell line stably expressing cloned human β1 adrenergic receptor (clone H34.1) was grown to about 70%-90% confluency in medium consisting of DMEM supplemented with 10% FBS and 500 μg/mL Geneticin. A HEK-293 cell line stably expressing cloned human β2-adrenoceptor (clone H24.14) was grown in the same medium to full confluency. A CHO-K1 cell line stably expressing cloned human β3-adrenoceptor was grown to about 70%-90% confluency in Ham's F-12 medium supplemented with 10% FBS and with 800 μg/mL Geneticin added to every fifth passage. The day before the assay, cultures were switched to the same growth-media without antibiotics.
cAMP assays were performed in a radioimmunoassay format using the Flashplate Adenylyl Cyclase Activation Assay System with ^125I-cAMP (NEN SMP004, PerkinElmer Life Sciences Inc., Boston, Mass.), according to the manufacturers instructions.
On the day of the assay, cells were rinsed once with PBS, lifted with Versene 1:5,000 (0.2 g/L EDTA in PBS) and counted. Cells were pelleted by centrifugation at 1,000 rpm and resuspended in stimulation buffer prewarmed to 37° C. For cells expressing the β1-adrenoceptor, 10 nM ICI 118,551 were added to the stimulation buffer, and cells were incubated for 10 min at 37° C. Cells were used at final concentrations of 30,000, 40,000 and 70,000 cells/well for the β1-adrenoceptor-, the β2-adrenoceptor- and the β3-adrenoceptor expressing cells, respectively. Compounds were dissolved to a concentration of 10 mM in DMSO, then diluted to 1 mM in 50 mM Gly-HCl pH 3.0, and from there serially diluted into assay buffer (75 mM Tris/HCl pH 7.4 @ 25° C., 12.5 mM MgCl2, 1 mM EDTA, 0.2% BSA). Compounds were tested in the assay at 11 different concentrations, ranging from 10 μM to […]. Reactions were incubated for 10 min at 37° C. and stopped by addition of 100 μL ice-cold detection buffer. Plates were sealed, incubated over night at 4° C. and counted the next morning in a topcount scintillation counter (Packard BioScience Co., Meriden, Conn.). The amount of cAMP produced per mL of reaction was calculated based on the counts observed for the samples and cAMP standards, as described in the manufacturer's user manual. Data were analyzed by nonlinear regression analysis with the GraphPad Prism Software package (GraphPad Software, Inc., San Diego, Calif.) using the 3-parameter model for sigmoidal dose-response (Hill slope=1). Agonist potencies were expressed as pEC50 values. Functional β2/β1 selectivity was defined as the ratio EC50(β1)/EC50(β2), and correspondingly functional β2/β3 selectivity was defined as the ratio EC50(β3)/EC50(β2).

[3] = system: acetylcholine-induced bronchospasm; experiment: Bronchoprotection against acetylcholine-induced bronchospasm in a guinea pig model (Test D); format: in vivo; conditions: inhalation
Method: Groups of 6 male guinea pigs (Duncan-Hartley (HsdPoc:DH) Harlan, Madison, Wis.) weighing between 250 and 350 g were individually identified by cage cards. Throughout the study animals were allowed access to food and water ad libitum.
Test compounds were administered via inhalation over 10 minutes in a whole-body exposure dosing chamber (R&S Molds, San Carlos, Calif.). The dosing chambers were arranged so that an aerosol was simultaneously delivered to 6 individual chambers from a central manifold. Following a 60 minute acclimation period and a 10 minute exposure to nebulized water for injection (WFI), guinea pigs were exposed to an aerosol of test compound or vehicle (WFI). These aerosols were generated from aqueous solutions using an LC Star Nebulizer Set (Model 22F51, PARI Respiratory Equipment, Inc. Midlothian, Va.) driven by a mixture of gases (CO2=5%, O2=21% and N2=74%) at a pressure of 22 psi. The gas flow through the nebulizer at this operating pressure was approximately 3 L/minute. The generated aerosols were driven into the chambers by positive pressure. No dilution air was used during the delivery of aerosolized solutions. During the 10 minute nebulization, approximately 1.8 mL of solution was nebulized. This was measured gravimetrically by comparing pre- and post-nebulization weights of the filled nebulizer.
The bronchoprotective effects of compounds administered via inhalation were evaluated using whole body plethysmography at 1.5, 24, 48 and 72 hours post-dose. Forty-five minutes prior to the start of the pulmonary evaluation, each guinea pig was anesthetized with an intramuscular injection of ketamine (43.75 mg/kg), xylazine (3.50 mg/kg) and acepromazine (1.05 mg/kg). After the surgical site was shaved and cleaned with 70% alcohol, a 2-5 cm midline incision of the ventral aspect of the neck was made. Then, the jugular vein was isolated and cannulated with a saline-filled polyethylene catheter (PE-50, Becton Dickinson, Sparks, Md.) to allow for intravenous infusions of a 0.1 mg/mL solution of acetylcholine (Ach), (Sigma-Aldrich, St. Louis, Mo.) in saline. The trachea was then dissected free and cannulated with a 14G teflon tube (#NE-014, Small Parts, Miami Lakes, Fla.). If required, anesthesia was maintained by additional intramuscular injections of the aforementioned anesthetic cocktail. The depth of anesthesia was monitored and adjusted if the animal responded to pinching of its paw or if the respiration rate was greater than 100 breaths/minute.
Once the cannulations were complete, the animal was placed into a plethysmograph (#PLY3114, Buxco Electronics, Inc., Sharon, Conn.) and an esophageal pressure cannula was inserted to measure pulmonary driving pressure (pressure). The teflon tracheal tube was attached to the opening of the plethysmograph to allow the guinea pig to breathe room air from outside the chamber. The chamber was then sealed.
Once it was determined that baseline values were within the range 0.3-0.9 mL/cm H2O for compliance and within the range 0.1-0.199 cm H2O/mL per second for resistance, the pulmonary evaluation was initiated. A Buxco pulmonary measurement computer program enabled the collection and derivation of pulmonary values. Starting this program initiated the experimental protocol and data collection. The changes in volume over time that occurred within the plethysmograph with each breath were measured via a Buxco pressure transducer. By […] this signal over time, a measurement of flow was calculated for each breath. This signal, together with the pulmonary driving pressure changes, which were collected using a Sensym pressure transducer (#TRD4100), was connected via a Buxco (MAX 2270) preamplifier to a data collection interface (#'s SFT3400 and SFT3813). All other pulmonary parameters were derived from these two inputs.
Baseline values were collected for 5 minutes, after which time the guinea pigs were challenged with Ach. […]

[4] = target: T1, human β2 adrenergic receptor; experiment: Whole-cell cAMP Flashplate assay, lung epithelial cell line BEAS-2B endogenously expressing receptor (Test C); format: cell-based
Method: For the determination of agonist potencies and efficacies (intrinsic activities) in a cell line expressing endogenous levels of β2 adrenergic receptor, a human lung epithelial cell line (BEAS-2B) was used (ATCC CRL-9609, American Type Culture Collection, Manassas, Va.) (January B, et al., British Journal of Pharmacology, 1998, 123, 4, 701-11). Cells were grown to 75-90% confluency in complete, serum-free medium (LHC-9 MEDIUM containing Epinephrine and Retinoic Acid, cat #181-500, Biosource International, Camarillo, Calif.). The day before the assay, medium was switched to LHC-8 (No epinephrine or retinoic acid, cat #141-500, Biosource International, Camarillo, Calif.). […]
On the day of the assay, cells were rinsed with PBS, lifted by scraping with 5 mM EDTA in PBS, and counted. […]
Compounds were tested in the assay at 10 different concentrations, ranging from 10 μM to […]. Maximal response was determined in the presence of 10 μM Isoproterenol. […] Plates were sealed, incubated over night at 4° C. and counted the next morning in a topcount scintillation counter (Packard BioScience Co., Meriden, Conn.). The amount of cAMP produced per mL of reaction was calculated based on the counts observed for samples and cAMP standards, as described in the manufacturer's user manual. […]

pKi [1]	Selectivity β2/β1 (binding) [1]	pEC50 [2]	Selectivity β2/β1 (functional) [2]	Selectivity β2/β3 (functional) [2]	pEC50 ([4]; BEAS-2B endogenous cell line, cAMP)	Emax ([4]; BEAS-2B, Emax relative to 10 μM isoproterenol, read-out: % Efficacy) [%]	Structure (SMILES)	Activity at 1.5 hours post dose [3]	Activity at 72 hours post dose [3]	Activity at 72 hours post dose ([3]; listed as comparison compound)	Activity at 72 hours post dose ([3]; listed as compound of the invention)
9.10	76	10.30	54	370	–	–	O=c1ccc2c([C@@H](O)CNCCCCCCOCCc3ccccc3)ccc(O)c2[nH]1 [Comparison Compound, 8-hydroxy-5-[(R)-1-hydroxy-2-(6-phenethyloxy-hexylamino)ethyl]-1H-quinolin-2-one, reference compound]	Yes	No	not active	–
7.60	18	9.50	107	3900	8.50	68	O=c1ccc2c([C@@H](O)CNCCCCCCNCCc3ccccc3)ccc(O)c2[nH]1 [Compound of the Invention, 8-hydroxy-5-[(R)-1-hydroxy-2-(6-phenethylamino-hexylamino)ethyl]-1H-quinolin-2-one]	Yes	Yes	–	demonstrated bronchoprotection
